Reference: the supplement of paper PMC10307832

What was measured:
Test in all cases: relative viability (nuclei count vs DMSO), 5 days (fraction); higher = more cells survive
Alpelisib + Decitabine = compound: Cc1nc(NC(=O)N2CCC[C@H]2C(N)=O)sc1-c1ccnc(C(C)(C)C(F)(F)F)c1 [Alpelisib] + Nc1ncn([C@H]2C[C@H](O)[C@@H](CO)O2)c(=O)n1 [Decitabine] (partner 2 µM)
Method in brief: (§1)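 A single step with final 0.05% Triton X-100, 1% formaldehyde and 1 ug/ml Hoechst fixed the cells and stained nuclei 5 days after treatment. Lung cancer cell lines in 1536-well plates had been treated by pin tool the day after seeding with one drug alone or a fixed anchor-drug dose plus five library-drug doses (not always all listed) in √10 steps, and nuclei were counted on 4× images. Relative viability is the ratio of nuclei in treated wells to nuclei in vehicle wells, taken as the median of duplicate plates.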

Vemurafenib + Phenformin = compound: CCCS(=O)(=O)Nc1ccc(F)c(C(=O)c2c[nH]c3ncc(-c4ccc(Cl)cc4)cc23)c1F [Vemurafenib] + N=C(N)NC(=N)NCCc1ccccc1 [Phenformin] (partner 250 µM)
Method in brief: as §1

Alpelisib + Navitoclax = compound: Cc1nc(NC(=O)N2CCC[C@H]2C(N)=O)sc1-c1ccnc(C(C)(C)C(F)(F)F)c1 [Alpelisib] + CC1(C)CCC(c2ccc(Cl)cc2)=C(CN2CCN(c3ccc(C(=O)NS(=O)(=O)c4ccc(N[C@H](CCN5CCOCC5)CSc5ccccc5)c(S(=O)(=O)C(F)(F)F)c4)cc3)CC2)C1 [Navitoclax] (partner 0.5 µM)
Method in brief: as §1

Vemurafenib + Decitabine = compound: CCCS(=O)(=O)Nc1ccc(F)c(C(=O)c2c[nH]c3ncc(-c4ccc(Cl)cc4)cc23)c1F [Vemurafenib] + Nc1ncn([C@H]2C[C@H](O)[C@@H](CO)O2)c(=O)n1 [Decitabine] (partner 2 µM)
Method in brief: as §1

## UMC-11
Alpelisib + Decitabine; first compound 0.04 µM
  relative viability: 0.513
Alpelisib + Decitabine; first compound 0.1265 µM
  relative viability: 0.636
Alpelisib + Decitabine; first compound 0.4 µM
  relative viability: 0.693
Alpelisib + Decitabine; first compound 1.265 µM
  relative viability: 0.535
Alpelisib + Decitabine; first compound 4 µM
  relative viability: 0.745
Vemurafenib + Phenformin; first compound 0.03162 µM
  relative viability: 0.29
Vemurafenib + Phenformin; first compound 0.1 µM
  relative viability: 0.315
Vemurafenib + Phenformin; first compound 0.3162 µM
  relative viability: 0.227
Vemurafenib + Phenformin; first compound 1 µM
  relative viability: 0.315
Alpelisib + Navitoclax; first compound 0.04 µM
  relative viability: 0.319
Alpelisib + Navitoclax; first compound 0.1265 µM
  relative viability: 0.341
Alpelisib + Navitoclax; first compound 0.4 µM
  relative viability: 0.336
Alpelisib + Navitoclax; first compound 1.265 µM
  relative viability: 0.325
Alpelisib + Navitoclax; first compound 4 µM
  relative viability: 0.273
Vemurafenib + Decitabine; first compound 0.03162 µM
  relative viability: 0.568
Vemurafenib + Decitabine; first compound 0.1 µM
  relative viability: 0.595
Vemurafenib + Decitabine; first compound 1 µM
  relative viability: 0.545
